Molecules are shown by their SMILES.

Data on one compound can be found in ChEMBL document CHEMBL5365534, “Discovery of a Novel Ketohexokinase Inhibitor with Improved Drug Distribution in Target Tissue for the Treatment of Fructose Metabolic Disease” (J Med Chem, 2023).

For one series, the system named is HepG2. Description: cells. The conditions noted are these: Homo sapiens, HepG2, 48 h.
Series [1] can be described thus: Metabolic stability in dog hepatocyte assessed as parent compound remaining at 10 uM measured after 4 hrs by LC-MS/MS analysis. Format: ADME, cell-based, Canis lupus familiaris. The conditions noted are these: hepatocytes, read-out: Stability.
Series [2] can be described thus: Volume of distribution at steady state in Beagle dog at 1 mg/kg, iv administered as single dose measured upto 24 hrs by LC-MS/MS analysis. Format: ADME, organism-based, Canis lupus familiaris. The settings on record: in vivo, read-out: Vdss.
Series [3] can be described thus: Drug metabolism in dog hepatocytes assessed as glucuronidation metabolite at 10 uM measured upto 240 mins by LC-MS/MS analysis. Format: ADME, cell-based, Canis lupus familiaris, Hepatocyte. The settings on record: 4 h.
Series [4] is described as follows: in vitro. The settings on record: rhesus monkey, liver microsomes.
Series [5] in a line: AUC (0 to infinity) in Beagle dog at 5 mg/kg, po administered as single dose measured upto 24 hrs by LC-MS/MS analysis. Also on record: time < 24 hrs, dose 5 mg/kg, route po. The settings on record: in vivo. The class given is ADME, organism-based, Canis lupus familiaris.
Series [6] is described as follows: AUC (0 to t) in Beagle dog at 1 mg/kg, iv administered as single dose measured upto 24 hrs by LC-MS/MS analysis. Set-up: dose 1 mg/kg, time < 24 hrs, route iv. The class given is ADME, organism-based, Canis lupus familiaris. The settings on record: in vivo.
A short description of a further series: physchem. The settings on record: buffer, pH 7.4.
Series [7] in a line: Volume of distribution at steady state in Sprague-Dawley rat at 10 mg/kg, iv administered as single dose measured upto 24 hrs by LC-MS/MS analysis. The class given is ADME, organism-based. The conditions noted are these: in vivo, read-out: Vdss.
Series [8] in a line: in vitro. The conditions noted are these: rat, hepatocytes.
A further series deals with Cytochrome P450 3A4 (Homo sapiens, UniProt P08684). The series is described as follows: Time dependent inhibition of CYP3A4 in human liver microsomes at 10 uM preincubated for 30 mins followed by substrate addition and measured after 15 mins in presence of NADPH by LC-MS/MS analysis. Format: ADME, Microsome.
Sequence of Cytochrome P450 3A4 (P08684 whole entry): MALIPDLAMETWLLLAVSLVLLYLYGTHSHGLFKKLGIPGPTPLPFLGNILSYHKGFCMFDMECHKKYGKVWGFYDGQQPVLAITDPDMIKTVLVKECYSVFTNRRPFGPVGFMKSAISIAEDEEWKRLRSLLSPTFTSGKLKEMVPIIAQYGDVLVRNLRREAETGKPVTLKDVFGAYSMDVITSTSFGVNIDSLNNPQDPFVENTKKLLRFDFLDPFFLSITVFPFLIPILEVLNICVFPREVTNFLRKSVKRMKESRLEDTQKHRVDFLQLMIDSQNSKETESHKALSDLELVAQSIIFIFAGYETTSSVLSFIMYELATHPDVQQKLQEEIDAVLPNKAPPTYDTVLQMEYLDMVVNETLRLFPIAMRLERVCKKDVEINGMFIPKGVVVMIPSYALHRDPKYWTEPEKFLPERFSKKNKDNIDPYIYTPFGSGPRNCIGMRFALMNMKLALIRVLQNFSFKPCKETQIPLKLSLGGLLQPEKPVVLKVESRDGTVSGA
Series [9] in a line: in vitro. The conditions noted are these: rat, liver microsomes.
A further series in a line: in vivo. The settings on record: Sprague-Dawley, rat, kidney, po, 10 mg/kg.
Another series has as its target T1, PXR (Homo sapiens, UniProt O75469).
T1 sequence (O75469 whole entry): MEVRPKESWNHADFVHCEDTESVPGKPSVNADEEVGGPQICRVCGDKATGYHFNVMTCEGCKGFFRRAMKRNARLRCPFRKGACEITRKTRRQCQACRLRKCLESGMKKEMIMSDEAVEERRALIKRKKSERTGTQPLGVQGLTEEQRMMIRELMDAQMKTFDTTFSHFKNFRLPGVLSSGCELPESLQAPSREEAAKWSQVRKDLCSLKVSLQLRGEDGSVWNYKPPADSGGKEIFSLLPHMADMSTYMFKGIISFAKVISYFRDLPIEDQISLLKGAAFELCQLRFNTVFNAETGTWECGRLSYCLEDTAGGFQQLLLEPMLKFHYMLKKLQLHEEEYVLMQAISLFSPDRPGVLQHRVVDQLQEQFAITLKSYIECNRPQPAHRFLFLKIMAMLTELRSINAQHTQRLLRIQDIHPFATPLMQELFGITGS
Description: in vitro.

Series [10] can be described thus: AUC (0 to t) in Beagle dog at 5 mg/kg, po administered as single dose measured upto 24 hrs by LC-MS/MS analysis. The class given is ADME, organism-based, Canis lupus familiaris. Also on record: dose 5 mg/kg, time < 24 hrs, route po. The conditions noted are these: in vivo.
Series [11] can be described thus: in vitro. The settings on record: mouse, hepatocytes.
Series [12] can be described thus: Metabolic stability in human hepatocyte assessed as parent compound remaining at 10 uM measured after 4 hrs by LC-MS/MS analysis. Format: ADME, cell-based. The settings on record: hepatocytes, read-out: Stability.

Description for HepG2: Cytotoxicity against human HepG2 cells measured after 48 hrs by microscopy based analysis
Description for PXR: Activation of PXR (unknown origin) at 30 uM relative to control
Description for in vivo: Drug concentration in Sprague-Dawley rat kidney at 10 mg/kg, po administered as single dose measured upto 24 hrs by LC-MS/MS analysis

`C[C@H]1CCN1c1nc(N2CC[C@H](CCC(=O)O)C2)c2c(n1)C(F)(F)CC2`: the half-maximal inhibitory concentration (IC50) was greater than 150 µM with HepG2 and greater than 10 µM at Cytochrome P450 3A4. In addition, the remaining at 4 h, 10 µM in [1] is 97.8%; in series [12], 98.5%. The Vd in series [2] amounted to 0.87 L/kg; in [7], 0.89 L/kg. In addition, in series [3], the Drug metabolism entry is “Metabolite_Notdetected”. Also, the microsomal CLint at 2 h, 1 µM in “in vitro [4]” is 10.2 µL/min/mg; in the series “in vitro [9]” it was less than 6.4 µL/min/mg. The AUC in series [5] amounted to 34100 ng·h/mL. In addition, the AUCt was 5440 ng·h/mL in [6] and 33400 ng·h/mL in [10]. In addition, the logD in the series “physchem” worked out at 0.14. Also, the hepatocyte CLint at 2 h, 1 µM in the series “in vitro [8]” and in the series “in vitro [11]” was less than 0.96 µL/min/1e6 cells each time. In “in vivo”, this compound gave a concentration at 24 h of 11000 ng/g. This compound also registered an activity at 30 µM on PXR of 0.96%.
